Legend:
Format in all cases: functional
Eleusine indica = assay: Post emergence herbicidal activity against three-leaf stage Eleusine indica assessed as efficacy of weed growth control at 40 g ai/ha under greenhouse conditions
Chenopodium album [1] = assay: Post-emergence herbicidal activity against two-leaf stage Chenopodium album assessed as efficacy of weed growth control at 60 g ai/ha under greenhouse conditions
Echinochloa crus-galli = assay: Post-emergence herbicidal activity against three-leaf stage Echinochloa crus-galli (barnyard grass) assessed as efficacy of weed growth control at 80 g ai/ha under greenhouse conditions
Stellaria media = assay: Post-emergence herbicidal activity against eight-leaf stage Stellaria media assessed as efficacy of weed growth control at 40 g ai/ha under greenhouse conditions
Cyperus microiria = assay: Post-emergence herbicidal activity against three-leaf stage Cyperus microiria assessed as efficacy of weed growth control at 750 g ai/ha under greenhouse conditions
Senna tora = assay: Post-emergence herbicidal activity against one-leaf stage Senna tora assessed as efficacy of weed growth control at 750 g ai/ha under greenhouse conditions
Portulaca oleracea = assay: Post-emergence herbicidal activity against three-leaf stage Portulaca oleracea assessed as efficacy of weed growth control at 80 g ai/ha under greenhouse conditions
Chenopodium album [2] = assay: Post-emergence herbicidal activity against two-leaf stage Chenopodium album assessed as efficacy of weed growth control at 80 g ai/ha under greenhouse conditions
Galinsoga quadriradiata = assay: Post-emergence herbicidal activity against four-leafstage of Galinsoga quadriradiata assessed as efficacy of weed growth control at 80 g ai/ha under greenhouse conditions

COc1cc(OC)nc(NC(=O)NS(=O)(=O)c2ncccc2C(=O)N(C)C)n1 [NICOSULFURON]
Efficacy (Eleusine indica): 95% | Efficacy (Chenopodium album [1]): 70% | Efficacy (Echinochloa crus-galli): 95% | Efficacy (Stellaria media): 70% | Efficacy (Cyperus microiria): 95% | Efficacy (Senna tora): <50% | Efficacy (Portulaca oleracea): 95% | Efficacy (Chenopodium album [2]): 95% | Efficacy (Galinsoga quadriradiata): 95%
